# Source: US20240180900A1, “COMPOUNDS AND METHODS FOR THE TARGETED DEGRADATION OF ANDROGEN RECEPTOR” (Arvinas Operations, Inc., priority 2022, published 2024)
# Columns and labels:
# [1] = molecular target: T1, AR (VCaP cells, AR amplification) (Homo sapiens, UniProt P10275); experiment: AR degradation assay and time course in VCaP cells; format: cell-based
# T1 construct: endogenous in cells; host or cells: VCaP
# T1 sequence (P10275 1-920): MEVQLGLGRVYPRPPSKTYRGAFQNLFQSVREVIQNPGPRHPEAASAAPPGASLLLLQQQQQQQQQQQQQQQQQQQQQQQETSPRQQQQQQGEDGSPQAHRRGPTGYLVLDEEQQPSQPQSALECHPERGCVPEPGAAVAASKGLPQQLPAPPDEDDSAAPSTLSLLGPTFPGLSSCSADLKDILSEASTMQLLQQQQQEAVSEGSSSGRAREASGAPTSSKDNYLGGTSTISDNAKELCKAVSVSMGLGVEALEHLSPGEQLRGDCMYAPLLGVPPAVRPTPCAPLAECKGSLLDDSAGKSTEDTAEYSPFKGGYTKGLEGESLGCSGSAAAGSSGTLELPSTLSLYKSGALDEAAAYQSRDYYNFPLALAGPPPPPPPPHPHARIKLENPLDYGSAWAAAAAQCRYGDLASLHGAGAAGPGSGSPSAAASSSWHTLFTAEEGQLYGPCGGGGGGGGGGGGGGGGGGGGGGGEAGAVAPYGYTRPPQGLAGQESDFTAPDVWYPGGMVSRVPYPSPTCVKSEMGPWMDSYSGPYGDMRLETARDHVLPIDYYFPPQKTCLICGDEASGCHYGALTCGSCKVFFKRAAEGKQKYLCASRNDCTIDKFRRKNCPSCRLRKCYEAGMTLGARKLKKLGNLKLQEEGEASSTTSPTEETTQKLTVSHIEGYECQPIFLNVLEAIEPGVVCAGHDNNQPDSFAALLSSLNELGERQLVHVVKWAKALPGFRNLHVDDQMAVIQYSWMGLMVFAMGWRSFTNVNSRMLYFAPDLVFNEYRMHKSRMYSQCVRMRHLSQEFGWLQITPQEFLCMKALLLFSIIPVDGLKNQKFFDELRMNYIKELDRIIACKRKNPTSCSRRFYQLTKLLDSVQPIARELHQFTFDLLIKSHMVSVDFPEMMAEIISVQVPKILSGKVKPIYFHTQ
# Method: FIG. 2 is an analysis of Compound A in in vitro AR degradation assays conducted in VCaP cells and LNCaP cancer cells that harbor AR amplification and the AR mutation (T878A) mutation, respectively.
# To determine the pharmacological effect of Compound A in vitro, AR degradation assays were conducted in VCaP (vertebral-cancer of the prostate) cancer cells and LNCaP (lymph node carcinoma of the prostate) cancer cells that harbor AR amplification and the AR mutation (T878A) mutation, respectively.
# To determine the pharmacological effect of Compound A in vitro, AR degradation assays were conducted in VCaP cells and LNCaP prostate cancer cells that harbor AR amplification and the AR mutation (T878A) mutation, respectively.
# AR W742L = molecular target: T2, AR W742L (Homo sapiens, UniProt P10275, W742L); experiment: AR degradation in T-Rex-293 cell line, W742L; format: cell-based; conditions: T-Rex-293, ELISA
# T2 construct: expressed in transfected cells; host or cells: T-REx-293
# T2 sequence (P10275 whole entry W742L): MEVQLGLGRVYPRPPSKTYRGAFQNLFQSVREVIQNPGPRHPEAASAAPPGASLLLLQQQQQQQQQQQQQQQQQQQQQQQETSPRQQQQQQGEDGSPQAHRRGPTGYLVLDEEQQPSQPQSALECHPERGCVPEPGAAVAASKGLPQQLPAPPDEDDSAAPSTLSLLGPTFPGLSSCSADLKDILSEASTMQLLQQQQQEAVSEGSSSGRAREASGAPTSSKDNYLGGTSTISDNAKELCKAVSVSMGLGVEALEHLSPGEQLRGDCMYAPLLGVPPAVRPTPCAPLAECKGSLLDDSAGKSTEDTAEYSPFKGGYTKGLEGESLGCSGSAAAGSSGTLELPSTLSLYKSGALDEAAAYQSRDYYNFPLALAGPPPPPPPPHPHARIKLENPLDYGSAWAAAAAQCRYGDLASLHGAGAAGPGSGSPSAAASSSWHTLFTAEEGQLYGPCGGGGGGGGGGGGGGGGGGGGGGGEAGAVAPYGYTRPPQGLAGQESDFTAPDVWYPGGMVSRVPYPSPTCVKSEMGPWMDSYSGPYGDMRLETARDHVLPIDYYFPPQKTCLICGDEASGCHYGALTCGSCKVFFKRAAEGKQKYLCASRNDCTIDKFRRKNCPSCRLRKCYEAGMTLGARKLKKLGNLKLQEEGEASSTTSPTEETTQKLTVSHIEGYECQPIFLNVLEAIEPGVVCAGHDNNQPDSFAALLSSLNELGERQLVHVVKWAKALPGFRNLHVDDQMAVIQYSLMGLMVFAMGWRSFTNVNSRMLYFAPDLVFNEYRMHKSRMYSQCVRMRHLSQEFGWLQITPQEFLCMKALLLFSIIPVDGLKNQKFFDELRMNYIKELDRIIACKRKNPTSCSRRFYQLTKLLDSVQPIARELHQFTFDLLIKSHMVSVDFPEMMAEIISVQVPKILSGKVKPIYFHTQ
# Description: (§1) FIG. 3 is a graph showing Compound A's ability to degrade clinically relevant mutated forms AR.
# (§2) To assess the ability of Compound A to degrade variants of the AR, vectors expressing wild-type AR or mutant AR proteins harboring clinically observed mutations in the ligand binding domain (13 with single amino acid changes or 4 with 2 amino acid changes) (Azad A. A., Volik S. V., Wyatt A. W., et al. Androgen receptor gene aberrations in circulating cell-free DNA: biomarkers of therapeutic resistance in castration-resistant prostate cancer. Clin Cancer Res. 2015; 21:2315-2324; Robinson D., Van Allen E. M., Wu Y. M., et al. Integrative clinical genomics of advanced prostate cancer. Cell. 2015; 161:1215-1228; Ledet E. M., Lilly M. B., Sonpavde G., et al. Comprehensive analysis of AR alterations in circulating tumor DNA from patients with advanced prostate cancer. Oncologist.
# AR W742C = molecular target: T3, AR W742C (Homo sapiens, UniProt P10275, W742C); experiment: AR degradation in T-Rex-293 cell line, W742C; format: cell-based; conditions: T-Rex-293, ELISA
# T3 construct: expressed in transfected cells; host or cells: T-REx-293
# T3 sequence (P10275 whole entry W742C): as the sequence (P10275 whole entry W742L) above, with L742C counted along it
# Description: as §1, §2
# VCaP cells = experiment: apoptosis in VCaP cells (CaspaseGlo); format: cell-based; conditions: Homo sapiens, CSS + 0.1 nM R1881, 72 hours, read-out: EC50, inducing apoptosis
# Method: (§3) Intracellular prostate specific antigen (PSA) levels were determined using a PSA enzyme-linked immunosorbent assay (ELISA). […] The cell proliferation was determined using the CellTiter-Glo® assay. […] The CaspaseGlo® assay was carried out to measure the level of apoptosis in cells.
# (§4) To evaluate the pharmacological effect of Compound A in vitro, PSA, cell proliferation, and apoptosis assays were carried out in VCaP cells.
# [2] = test system: GSPT1, Aiolos, Ikaros, CK1α, and SALL4; experiment: cereblon neomorphic substrate degradation in Ramos and SK-N-DZ cells; format: cell-based; conditions: 1 μM
# PSA = experiment: intracellular PSA ELISA in VCaP cells; format: cell-based; conditions: Homo sapiens, CSS + 0.1 nM R1881, 48 hours, read-out: IC50, inhibiting PSA expression
# Method: as §3, §4
# [3] = Compound A in clinical setting: treatment-related adverse events; format: in vivo, human; conditions: TRAEs, n = 84
# [4] = test system: receptors, ion channels, transporters, and enzymes; experiment: selectivity screening panel of 44 targets: other targets; format: binding; conditions: 1 μM; interaction = effect greater than 50% of positive control
# Method: Compound A was tested at 1 μM in a screening study to assess the interaction of Compound A with a panel of 44 targets, including receptors, ion channels, transporters, and enzymes. Any effect greater than 50% of the positive control for a target was considered to represent an interaction of the test compound with the target.
# AR D891H = molecular target: T4, AR D891H (Homo sapiens, UniProt P10275, D891H); experiment: AR degradation in T-Rex-293 cell line, D891H (western blot); format: cell-based; conditions: T-Rex-293, western blot
# T4 construct: expressed in transfected cells; host or cells: T-REx-293
# T4 sequence (P10275 whole entry D891H): as the sequence (P10275 whole entry W742L) above, with L742W, D891H counted along it
# Description: as §1, §2
structure (smiles),measurement,setting,value
"COc1cc(O[C@H]2C(C)(C)[C@H](NC(=O)c3ccc(N4CCC(CN5CCN(c6ccc(C(=O)N[C@H]7CCC(=O)NC7=O)c(F)c6)CC5)CC4)cc3)C2(C)C)ccc1C#N [Compound A, 4-(4-((1-(4-(((1R,3R)-3-(4-cyano-3-methoxyphenoxy)-2,2,4,4-tetramethylcyclobutyl)carbamoyl)phenyl)piperidin-4-yl)methyl)piperazin-1-yl)-N—((S)-2,6-dioxopiperidin-3-yl)-2-fluorobenzamide]",DC50,[1]; 24 hours of treatment,< 1 nM
same,Dmax,[1]; 24 hours of treatment,≥ 94%
same,elimination of AR from the cell (time course),[1]; by 6 hours,near complete elimination of AR
same,degradation of AR (time course),[1]; within 2 hours of treatment,> 50%
same,DC50,AR W742L,2.3 nM
same,DC50,AR W742C,2.7 nM
same,EC50,VCaP cells,8 nM
same,"degradation of GSPT1, Aiolos, Ikaros, CK1α, and SALL4",[2],did not lead to degradation
same,IC50,PSA,4 nM
same,Alopecia: Any Grade,[3],8 n
same,Alopecia: Grade 3+,[3],0 (0) n (%)
same,Anemia: Any Grade,[3],3 n
same,Anemia: Grade 3+,[3],0 (0) n (%)
same,Any TRAE: Any Grade,[3],55 n
same,Any TRAE: Grade 3+,[3],7 (8) n (%)
same,Aspartate Aminotransferase increase: Any Grade,[3],6 n
same,Aspartate Aminotransferase increase: Grade 3+,[3],1 (1) n (%)
same,Decreased appetite: Any Grade,[3],9 n
same,Decreased appetite: Grade 3+,[3],0 (0) n (%)
same,Diarrhea: Any Grade,[3],9 n
same,Diarrhea: Grade 3+,[3],1 (1) n (%)
same,Fatigue: Any Grade,[3],24 n
same,Fatigue: Grade 3+,[3],2 (2) n (%)
same,Nausea: Any Grade,[3],12 n
same,Nausea: Grade 3+,[3],0 (0) n (%)
same,Vomiting: Any Grade,[3],9 n
same,Vomiting: Grade 3+,[3],0 (0) n (%)
same,Weight decrease: Any Grade,[3],1 n
same,Weight decrease: Grade 3+,[3],0 (0) n (%)
same,interaction with any other target of the panel of 44 targets,[4],No interaction with any other target was identified
same,DC50,AR D891H,3.9 nM
